The nature of data set [1]: Water sorption and desorption (hygroscopicity) of crystalline forms. The data set is classed as physicochemical. To be noted: for maximum water uptake: at 25° C. up to 95% RH; for hygroscopicity: crystalline solid form. From the text: The crystalline forms of compound of Formula (I), its salts and solvates can be characterized by a number of methods, including but not limited to, Powder X-Ray diffraction (PXRD), simulated powder X-ray patterns (Yin. S.; Scaringe, R. P.; DiMarco, J.; Galella, M. and Gougoutas, J. Z., American Pharmaceutical Review, 2003, 6, 2, 80), Differential scanning calorimetry (DSC) experiments, Solid-state C-13 NMR measurements, (W. L. Earl and D. L. VanderHart, J. Magn. Reson., 1982, 48, 35-54), Raman spectroscopy, Infra-red spectroscopy, Moisture sorption isotherms (VTI—variable temperature isotherms), and hot stage techniques.
(§1) The crystalline forms HA, A, B, C, and D obtained in Examples 11-16 are analyzed by various standard methods: XPRD, DSC, TGA, Microscopy. Water sorption and desorption is also examined.

A short description of data set [2]: Heating of the hemihydrate form (dehydration and form conversion). The data set is classed as physicochemical. As to conditions: upon heating. The protocol:
Form B can be obtained by heating the hemihydrate Form HA above 100° C. over a period of time to remove the water completely, by equilibrating the hemihydrate Form HA in heptane at 50° C., or by cooling crystallization from methyl isobutyl ketone.
as §1

Turning to `CN[C@@H](C)C(=O)N[C@H](C(=O)N1CCC[C@H]1c1nc(C(=O)c2ccc(F)cc2)cs1)C1CCCCC1` [Form A, (S)—N—((S)-1-cyclohexyl-2-{(S)-2-[4-(4-fluoro-benzoyl)-thiazol-2-yl]-pyrrolidin-1-yl}-2-oxo-ethyl)-2-methylamino-propionamide], in data set [1], the maximum water uptake entry is reported as “about 0.8%” and the hygroscopicity result was “slightly hygroscopic”.
The matching figures for `CN[C@@H](C)C(=O)N[C@H](C(=O)N1CCC[C@H]1c1nc(C(=O)c2ccc(F)cc2)cs1)C1CCCCC1` [Form B, (S)—N—((S)-1-cyclohexyl-2-{(S)-2-[4-(4-fluoro-benzoyl)-thiazol-2-yl]-pyrrolidin-1-yl}-2-oxo-ethyl)-2-methylamino-propionamide]: “about 0.5%” and “slightly hygroscopic”.
Taken in the same sequence, the figures for `CN[C@@H](C)C(=O)N[C@H](C(=O)N1CCC[C@H]1c1nc(C(=O)c2ccc(F)cc2)cs1)C1CCCCC1` [Form C, (S)—N—((S)-1-cyclohexyl-2-{(S)-2-[4-(4-fluoro-benzoyl)-thiazol-2-yl]-pyrrolidin-1-yl}-2-oxo-ethyl)-2-methylamino-propionamide] were “less than 0.2%” and “nonhygroscopic”.
The matching figures for `CN[C@@H](C)C(=O)N[C@H](C(=O)N1CCC[C@H]1c1nc(C(=O)c2ccc(F)cc2)cs1)C1CCCCC1` [Form D, (S)—N—((S)-1-cyclohexyl-2-{(S)-2-[4-(4-fluoro-benzoyl)-thiazol-2-yl]-pyrrolidin-1-yl}-2-oxo-ethyl)-2-methylamino-propionamide]: “less than 0.5%” and “slightly hygroscopic”.
With `CN[C@@H](C)C(=O)N[C@H](C(=O)N1CCC[C@H]1c1nc(C(=O)c2ccc(F)cc2)cs1)C1CCCCC1` [Form HA, (S)—N—((S)-1-cyclohexyl-2-{(S)-2-[4-(4-fluoro-benzoyl)-thiazol-2-yl]-pyrrolidin-1-yl}-2-oxo-ethyl)-2-methylamino-propionamide], the “heating temperature at which the form loses water and converts to Form B” value in data set [2] is “above 100 °C”. In addition, the water content in data set [1] (between 10% relative humidity (RH) and 70% RH) is ~1.7%. Further, the hygroscopicity entry in data set [1] is recorded as “slightly hygroscopic”. In addition, the “additional moisture taken up” value in data set [1] (from 70% RH to 95% RH) is ~0.4%.
